{"source": "paper PMC4584933", "about": "“Establishing the pig as a large animal model for vaccine development against human cancer” (Frontiers in Genetics, 2015)", "key": {"[1]": {"test": "Dissolving of 20mer peptides for immunization", "format": "physicochemical", "details": "to 5 mM in milliQ water, N-methyl-2-pyrrolidone or 3% ammonia water", "procedure": "Fifty-nine 20mer peptides with 10mer overlap covering the entire IDO and RhoC amino acid (aa) sequence were purchased from Genscript (New Jersey, U.S) or Pepscan Presto BV (Lelystad, the Netherlands). […] Peptides were dissolved to a concentration of 5 mM in milliQ water, N-methyl-2-pyrrolidone or 3% ammonia water in accordance with the supplier's recommendations, for further details see Supplementary Table 1."}, "SLA-1*04:01": {"system": "SLA-1*04:01", "test": "Peptide-MHC class I complex stability, scintillation proximity assay (SPA)", "set-up": "species or system pig", "details": "biotinylated recombinant SLA heavy chain, 125I-β2m, excess unlabeled β2m, read every 40 min, number only if t1/2 ≥ 0.5 h, '-' = not stably binding", "in_short": "(§1)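 Biotinylated recombinant heavy chains captured on streptavidin scintillation plates with 125I-β2m and peptide; signal read every 40 min under dissociating conditions with excess unlabeled β2m. Signal duration gives complex half-life; ≥ 0.5 h counted as stable binder.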"}, "SLA-1*07:02": {"system": "SLA-1*07:02", "test": "Peptide-MHC class I complex stability, scintillation proximity assay (SPA)", "set-up": "species or system pig", "details": "biotinylated recombinant SLA heavy chain, 125I-β2m, excess unlabeled β2m, read every 40 min, number only if t1/2 ≥ 0.5 h, '-' = not stably binding", "in_short": "as §1"}, "SLA-3*04:01": {"system": "SLA-3*04:01", "test": "Peptide-MHC class I complex stability, scintillation proximity assay (SPA)", "set-up": "species or system pig", "details": "biotinylated recombinant SLA heavy chain, 125I-β2m, excess unlabeled β2m, read every 40 min, number only if t1/2 ≥ 0.5 h, '-' = not stably binding", "in_short": "as §1"}, "PBMCs": {"system": "PBMCs", "test": "In vitro peptide stimulation of porcine PBMCs, IFN-γ release assay (ELISA)", "format": "cell-based, pig", "set-up": "key to T cell response: “x” indicates that a response was found to this given peptide at least once", "details": "PBMCs of immunized pigs, 2 × 10^5/well, 5 μg/ml peptide, 67.5–70.0 h, IFN-γ ELISA; response = 2-fold increase vs day -2 and at least 25 pg/ml IFN-γ, found at least once; SLA restriction not included"}, "SLA-2*04:01": {"system": "SLA-2*04:01", "test": "Peptide-MHC class I complex stability, scintillation proximity assay (SPA)", "set-up": "species or system pig", "details": "biotinylated recombinant SLA heavy chain, 125I-β2m, excess unlabeled β2m, read every 40 min, number only if t1/2 ≥ 0.5 h, '-' = not stably binding", "in_short": "as §1"}, "SLA-2*05:02": {"system": "SLA-2*05:02", "test": "Peptide-MHC class I complex stability, scintillation proximity assay (SPA)", "set-up": "species or system pig", "details": "biotinylated recombinant SLA heavy chain, 125I-β2m, excess unlabeled β2m, read every 40 min, number only if t1/2 ≥ 0.5 h, '-' = not stably binding", "in_short": "as §1"}}}
{"substance": "IDO330−350: 20mer peptide of the overlapping IDO/RhoC library, omitted due to dissolving problems (EAYDACVKALVSLRSYHLQIV; UniProt P14902 330-350, looked up, fragment)", "values": [{"measurement": "dissolving of peptide", "setting": "[1]", "value": "dissolving problems"}]}
{"substance": "KVLPRNIAIPY [IDO63, porcine IDO-derived 9-11mer peptide]", "values": [{"measurement": "Binder (t1/2 ≥ 0.5 h): half-life of peptide-SLA-1*04:01 complex", "setting": "SLA-1*04:01", "value": "- (t1/2 (hours) is listed for each of the stably binding peptides (t1/2 ≥ 0.5 h))"}, {"measurement": "Binder (t1/2 ≥ 0.5 h): half-life of peptide-SLA-1*07:02 complex", "setting": "SLA-1*07:02", "value": 0.7, "unit": "h"}, {"measurement": "Binder (t1/2 ≥ 0.5 h): half-life of peptide-SLA-3*04:01 complex", "setting": "SLA-3*04:01", "value": "- (t1/2 (hours) is listed for each of the stably binding peptides (t1/2 ≥ 0.5 h))"}, {"measurement": "T cell response", "setting": "PBMCs", "value": "x"}]}
{"substance": "MTYKNMDILF [IDO81, porcine IDO-derived 9-11mer peptide]", "values": [{"measurement": "Binder (t1/2 ≥ 0.5 h): half-life of peptide-SLA-1*04:01 complex", "setting": "SLA-1*04:01", "value": "- (t1/2 (hours) is listed for each of the stably binding peptides (t1/2 ≥ 0.5 h))"}, {"measurement": "Binder (t1/2 ≥ 0.5 h): half-life of peptide-SLA-1*07:02 complex", "setting": "SLA-1*07:02", "value": "- (t1/2 (hours) is listed for each of the stably binding peptides (t1/2 ≥ 0.5 h))"}, {"measurement": "Binder (t1/2 ≥ 0.5 h): half-life of peptide-SLA-2*04:01 complex", "setting": "SLA-2*04:01", "value": 4.2, "unit": "h"}, {"measurement": "Binder (t1/2 ≥ 0.5 h): half-life of peptide-SLA-2*05:02 complex", "setting": "SLA-2*05:02", "value": "- (t1/2 (hours) is listed for each of the stably binding peptides (t1/2 ≥ 0.5 h))"}, {"measurement": "Binder (t1/2 ≥ 0.5 h): half-life of peptide-SLA-3*04:01 complex", "setting": "SLA-3*04:01", "value": "- (t1/2 (hours) is listed for each of the stably binding peptides (t1/2 ≥ 0.5 h))"}]}
